Data taken from the NIST ThermoML archive (doi:10.1016/j.fluid.2008.03.015).
Where “and” joins values, the source holds several entries; their conditions need not be identical. Equal entries are not always repeated.

Settings: Liquid, Closed cell (Static) method

CCOCC [diethyl ether]
Settings | vapor or sublimation pressure
255.47 K | 10.11 kPa
255.48 K | 10.13 kPa
255.5 K | 10.14 kPa
265.44 K | 17.06 kPa
265.45 K | 17.07 kPa
274.86 K | 26.9 kPa
274.87 K | 26.91 kPa
284.83 K | 41.98 kPa
284.84 K | 42 kPa
294.77 K | 62.89 kPa
294.78 K | 62.93 kPa
304.75 K | 91.58 kPa and 91.56 kPa
304.76 K | 91.6 kPa
314.74 K | 129.3 kPa and 129.45 kPa
314.75 K | 129.42 kPa
324.89 K | 179.51 kPa and 179.65 kPa and 179.77 kPa

CC(C)OC(C)C [diisopropyl ether]
Settings | vapor or sublimation pressure
284.93 K | 10.74 kPa and 10.75 kPa
294.9 K | 17.21 kPa
294.91 K | 17.21 kPa
304.87 K | 26.57 kPa
304.89 K | 26.58 kPa
314.86 K | 39.71 kPa
314.87 K | 39.72 kPa
324.85 K | 57.64 kPa
324.87 K | 57.65 kPa
334.85 K | 81.41 kPa and 81.42 kPa
344.84 K | 112.36 kPa
344.85 K | 112.39 kPa
354.87 K | 151.81 kPa
354.88 K | 151.82 kPa

COC(C)(C)C [2-methoxy-2-methylpropane]
Settings | vapor or sublimation pressure
274.9 K | 11.59 kPa
274.91 K | 11.59 kPa
284.82 K | 18.55 kPa
294.8 K | 28.78 kPa
294.81 K | 28.78 kPa
304.79 K | 43.24 kPa and 43.26 kPa
314.75 K | 62.95 kPa
314.76 K | 62.97 kPa
324.9 K | 89.66 kPa and 89.69 kPa
334.85 K | 124.02 kPa
344.84 K | 167.14 kPa
344.85 K | 167.57 kPa
354.82 K | 221.79 kPa and 221.39 kPa

ClCCCl [1,2-dichloroethane]
Settings | vapor or sublimation pressure
284.86 K | 5.38 kPa
284.87 K | 5.37 kPa
294.83 K | 8.96 kPa
294.84 K | 8.95 kPa
304.82 K | 14.33 kPa and 14.32 kPa
314.81 K | 22.18 kPa
314.83 K | 22.18 kPa
324.82 K | 33.28 kPa
324.83 K | 33.27 kPa
334.79 K | 48.45 kPa
334.82 K | 48.46 kPa
344.81 K | 67.97 kPa
344.82 K | 67.98 kPa
354.89 K | 94.95 kPa and 94.94 kPa
